From the kinase profiling compilation of Christmann-Franck et al. (2016)

Columns and labels:
Assay in all cases: Caliper, Mobility shift assay off-chip
AURKC (human) = AURKC (human) (UniProt Q9UQB9)
CAMK1 (human) = CAMK1 (human) (UniProt Q14012)
CAMK2D (human) = CAMK2D (human) (UniProt Q13557)
CDC7 (human) = CDC7 (human) (UniProt O00311)
CDK9 (human) = CDK9 (human) (UniProt P50750)
DYRK1B (human) = DYRK1B (human) (UniProt Q9Y463)
EEF2K (human) = EEF2K (human) (UniProt O00418)
EPHA5 (human) = EPHA5 (human) (UniProt P54756)
FGFR2 (human) = FGFR2 (human) (UniProt P21802)
FGFR4 (human) = FGFR4 (human) (UniProt P22455)
GSG2 (human) = GSG2 (human) (UniProt Q8TF76)
IRAK1 (human) = IRAK1 (human) (UniProt P51617)
JAK3 JH1 JH2 (human) = JAK3 JH1 JH2 (human) (UniProt P52333)
KDR (human) = KDR (human) (UniProt P35968)
MAPK11 (human) = MAPK11 (human) (UniProt Q15759)
MARK3 (human) = MARK3 (human) (UniProt P27448)
NEK1 (human) = NEK1 (human) (UniProt Q96PY6)
PAK6 (human) = PAK6 (human) (UniProt Q9NQU5)
PGK1 (human) = PGK1 (human) (UniProt P00558)
PHKG2 (human) = PHKG2 (human) (UniProt P15735)
PIM2 (human) = PIM2 (human) (UniProt Q9P1W9)
PIM3 (human) = PIM3 (human) (UniProt Q86V86)
PRKAA1 (human) = PRKAA1 (human) (UniProt Q13131); conditions: compound 0.2 µM
PRKACG (human) = PRKACG (human) (UniProt P22612)
PRKCE (human) = PRKCE (human) (UniProt Q02156)
PRKCQ (human) = PRKCQ (human) (UniProt Q04759)
PRKD1 (human) = PRKD1 (human) (UniProt Q15139)
RPS6KA6 KD1 KD2 (human) = RPS6KA6 KD1 KD2 (human) (UniProt Q9UK32)
RPS6KB1 (human) = RPS6KB1 (human) (UniProt P23443)
STK38 (human) = STK38 (human) (UniProt Q15208)
TNIK (human) = TNIK (human) (UniProt Q9UKE5)
TSSK3 (human) = TSSK3 (human) (UniProt Q96PN8)
TYK2 JH1 JH2 (human) = TYK2 JH1 JH2 (human) (UniProt P29597)
TYRO3 (human) = TYRO3 (human) (UniProt Q06418)

Sequence of TYK2 JH1 JH2 (human) (P29597 whole entry, looked up): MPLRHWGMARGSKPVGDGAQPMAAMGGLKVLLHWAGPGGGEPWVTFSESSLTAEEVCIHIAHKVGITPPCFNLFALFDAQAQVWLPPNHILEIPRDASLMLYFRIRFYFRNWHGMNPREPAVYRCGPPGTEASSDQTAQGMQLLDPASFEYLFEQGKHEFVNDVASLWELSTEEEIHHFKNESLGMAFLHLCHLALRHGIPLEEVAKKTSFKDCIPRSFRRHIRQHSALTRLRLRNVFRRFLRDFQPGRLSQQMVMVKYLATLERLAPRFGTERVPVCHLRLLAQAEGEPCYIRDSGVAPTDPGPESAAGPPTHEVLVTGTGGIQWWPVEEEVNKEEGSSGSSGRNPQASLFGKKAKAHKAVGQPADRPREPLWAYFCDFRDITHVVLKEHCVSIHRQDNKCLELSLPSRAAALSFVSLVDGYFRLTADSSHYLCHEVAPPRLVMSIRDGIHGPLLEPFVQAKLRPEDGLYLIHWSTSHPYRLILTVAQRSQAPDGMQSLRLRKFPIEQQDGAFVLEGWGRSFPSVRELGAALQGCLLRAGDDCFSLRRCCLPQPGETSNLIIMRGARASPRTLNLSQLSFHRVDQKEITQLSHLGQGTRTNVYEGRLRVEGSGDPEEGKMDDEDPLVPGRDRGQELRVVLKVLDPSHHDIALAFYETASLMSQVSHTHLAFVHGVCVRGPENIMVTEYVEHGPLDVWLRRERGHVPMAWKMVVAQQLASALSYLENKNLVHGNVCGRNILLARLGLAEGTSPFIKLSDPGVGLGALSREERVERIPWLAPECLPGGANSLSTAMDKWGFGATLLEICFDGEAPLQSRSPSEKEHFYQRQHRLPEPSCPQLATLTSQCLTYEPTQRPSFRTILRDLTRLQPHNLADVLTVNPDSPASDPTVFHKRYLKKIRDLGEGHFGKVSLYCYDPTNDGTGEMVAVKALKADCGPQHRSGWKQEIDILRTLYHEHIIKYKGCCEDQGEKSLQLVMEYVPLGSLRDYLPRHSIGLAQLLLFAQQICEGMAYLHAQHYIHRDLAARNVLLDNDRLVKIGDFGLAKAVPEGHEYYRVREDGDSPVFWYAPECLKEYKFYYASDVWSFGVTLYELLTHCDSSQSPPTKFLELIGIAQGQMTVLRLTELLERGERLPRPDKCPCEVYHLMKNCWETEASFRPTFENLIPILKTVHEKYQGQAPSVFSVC
Sequence of FGFR2 (human) (P21802 whole entry, looked up): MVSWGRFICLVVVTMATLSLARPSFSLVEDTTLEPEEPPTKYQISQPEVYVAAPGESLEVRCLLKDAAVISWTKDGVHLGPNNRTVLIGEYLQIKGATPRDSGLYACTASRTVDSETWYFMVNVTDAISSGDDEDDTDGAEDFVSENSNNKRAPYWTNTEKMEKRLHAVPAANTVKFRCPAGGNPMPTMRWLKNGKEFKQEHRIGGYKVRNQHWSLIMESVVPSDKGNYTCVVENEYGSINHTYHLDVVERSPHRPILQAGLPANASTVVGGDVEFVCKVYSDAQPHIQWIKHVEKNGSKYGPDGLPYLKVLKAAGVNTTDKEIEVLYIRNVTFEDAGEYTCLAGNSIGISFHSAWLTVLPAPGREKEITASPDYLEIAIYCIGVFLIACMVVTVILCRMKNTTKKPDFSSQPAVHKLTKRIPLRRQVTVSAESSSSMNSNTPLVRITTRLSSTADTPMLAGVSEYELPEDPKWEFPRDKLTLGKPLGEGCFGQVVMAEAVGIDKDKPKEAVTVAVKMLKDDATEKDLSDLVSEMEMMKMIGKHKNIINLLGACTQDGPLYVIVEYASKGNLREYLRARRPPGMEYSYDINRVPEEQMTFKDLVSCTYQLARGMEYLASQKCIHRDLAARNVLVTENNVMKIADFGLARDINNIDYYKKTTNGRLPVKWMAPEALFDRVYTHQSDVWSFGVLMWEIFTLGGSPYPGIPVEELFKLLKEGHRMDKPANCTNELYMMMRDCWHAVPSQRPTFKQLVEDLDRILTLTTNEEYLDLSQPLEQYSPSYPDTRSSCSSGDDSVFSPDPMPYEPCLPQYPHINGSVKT
Sequence of PRKACG (human) (P22612 whole entry, looked up): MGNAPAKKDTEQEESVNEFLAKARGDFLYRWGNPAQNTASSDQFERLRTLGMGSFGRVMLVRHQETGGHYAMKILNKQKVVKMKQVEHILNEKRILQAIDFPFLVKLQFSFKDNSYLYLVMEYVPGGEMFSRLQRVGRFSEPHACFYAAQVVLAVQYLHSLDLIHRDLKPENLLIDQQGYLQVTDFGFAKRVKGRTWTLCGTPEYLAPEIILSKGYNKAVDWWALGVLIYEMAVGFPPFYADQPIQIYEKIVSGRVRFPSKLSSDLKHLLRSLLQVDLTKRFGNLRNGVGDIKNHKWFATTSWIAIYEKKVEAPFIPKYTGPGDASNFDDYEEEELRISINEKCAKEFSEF
Sequence of KDR (human) (P35968 whole entry, looked up): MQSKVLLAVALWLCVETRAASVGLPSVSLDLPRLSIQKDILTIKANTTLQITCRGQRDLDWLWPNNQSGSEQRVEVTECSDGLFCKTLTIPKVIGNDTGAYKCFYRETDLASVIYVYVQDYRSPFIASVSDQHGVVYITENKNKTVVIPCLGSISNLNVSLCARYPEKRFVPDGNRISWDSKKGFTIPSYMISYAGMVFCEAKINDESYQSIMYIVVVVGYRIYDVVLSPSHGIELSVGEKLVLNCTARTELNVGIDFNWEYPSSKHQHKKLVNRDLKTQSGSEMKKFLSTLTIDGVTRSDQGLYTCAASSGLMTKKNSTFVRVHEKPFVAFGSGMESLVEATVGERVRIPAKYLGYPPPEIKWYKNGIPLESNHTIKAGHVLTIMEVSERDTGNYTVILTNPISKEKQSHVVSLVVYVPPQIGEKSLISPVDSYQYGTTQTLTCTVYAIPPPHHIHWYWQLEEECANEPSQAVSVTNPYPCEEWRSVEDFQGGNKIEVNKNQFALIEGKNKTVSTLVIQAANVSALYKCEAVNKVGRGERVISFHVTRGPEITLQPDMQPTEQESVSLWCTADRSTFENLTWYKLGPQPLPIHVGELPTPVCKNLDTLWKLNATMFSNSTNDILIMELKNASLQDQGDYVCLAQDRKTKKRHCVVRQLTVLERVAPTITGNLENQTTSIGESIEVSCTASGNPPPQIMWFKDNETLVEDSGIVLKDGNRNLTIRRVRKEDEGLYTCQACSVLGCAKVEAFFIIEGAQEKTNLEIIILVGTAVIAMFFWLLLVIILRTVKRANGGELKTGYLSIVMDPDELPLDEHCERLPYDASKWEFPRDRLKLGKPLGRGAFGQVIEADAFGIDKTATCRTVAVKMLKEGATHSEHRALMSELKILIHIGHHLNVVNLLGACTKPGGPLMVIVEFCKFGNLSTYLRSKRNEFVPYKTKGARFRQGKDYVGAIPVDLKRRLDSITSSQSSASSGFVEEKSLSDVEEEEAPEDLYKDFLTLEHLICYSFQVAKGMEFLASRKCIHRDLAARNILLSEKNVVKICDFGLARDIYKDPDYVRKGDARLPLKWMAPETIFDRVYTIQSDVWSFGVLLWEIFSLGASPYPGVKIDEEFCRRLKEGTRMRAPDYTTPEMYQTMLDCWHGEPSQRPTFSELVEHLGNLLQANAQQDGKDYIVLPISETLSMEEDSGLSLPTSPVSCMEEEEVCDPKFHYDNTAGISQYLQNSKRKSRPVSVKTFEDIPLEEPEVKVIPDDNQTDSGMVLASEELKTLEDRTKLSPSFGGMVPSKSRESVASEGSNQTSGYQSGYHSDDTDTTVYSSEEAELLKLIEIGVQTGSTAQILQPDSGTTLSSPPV
Sequence of RPS6KB1 (human) (P23443 whole entry, looked up): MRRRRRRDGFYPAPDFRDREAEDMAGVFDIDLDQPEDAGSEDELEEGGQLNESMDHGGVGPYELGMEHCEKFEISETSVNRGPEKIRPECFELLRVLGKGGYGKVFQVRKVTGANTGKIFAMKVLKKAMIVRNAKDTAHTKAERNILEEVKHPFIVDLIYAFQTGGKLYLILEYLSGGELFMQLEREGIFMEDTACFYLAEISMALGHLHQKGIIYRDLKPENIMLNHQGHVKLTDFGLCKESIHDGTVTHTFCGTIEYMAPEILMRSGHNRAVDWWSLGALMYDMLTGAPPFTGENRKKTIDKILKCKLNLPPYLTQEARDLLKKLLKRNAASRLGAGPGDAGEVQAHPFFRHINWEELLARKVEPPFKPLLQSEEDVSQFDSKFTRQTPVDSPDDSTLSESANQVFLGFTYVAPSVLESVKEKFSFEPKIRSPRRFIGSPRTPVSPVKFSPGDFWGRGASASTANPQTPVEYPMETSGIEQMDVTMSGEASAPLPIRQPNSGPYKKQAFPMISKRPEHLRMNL
Sequence of PGK1 (human) (P00558 whole entry, looked up): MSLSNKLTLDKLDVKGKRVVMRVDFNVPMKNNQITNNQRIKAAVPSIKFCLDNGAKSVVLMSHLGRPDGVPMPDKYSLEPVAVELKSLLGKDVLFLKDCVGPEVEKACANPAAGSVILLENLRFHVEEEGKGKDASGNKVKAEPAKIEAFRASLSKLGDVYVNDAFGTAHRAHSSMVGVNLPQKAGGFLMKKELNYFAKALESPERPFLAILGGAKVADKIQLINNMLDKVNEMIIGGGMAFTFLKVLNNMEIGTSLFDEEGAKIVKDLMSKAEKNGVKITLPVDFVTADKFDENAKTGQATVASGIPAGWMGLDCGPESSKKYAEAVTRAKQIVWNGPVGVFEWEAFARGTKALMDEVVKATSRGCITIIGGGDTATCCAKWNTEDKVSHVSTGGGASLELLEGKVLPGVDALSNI
Sequence of AURKC (human) (Q9UQB9 whole entry, looked up): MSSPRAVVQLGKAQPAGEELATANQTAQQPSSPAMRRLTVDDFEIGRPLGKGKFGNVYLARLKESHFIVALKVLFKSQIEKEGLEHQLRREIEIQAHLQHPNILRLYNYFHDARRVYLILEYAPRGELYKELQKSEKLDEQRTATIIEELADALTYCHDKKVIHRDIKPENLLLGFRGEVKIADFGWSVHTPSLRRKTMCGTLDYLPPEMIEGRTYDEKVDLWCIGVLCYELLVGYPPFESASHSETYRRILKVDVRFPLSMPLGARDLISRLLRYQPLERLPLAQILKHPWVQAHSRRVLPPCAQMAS

Work on `COc1cc2c(Oc3ccc4[nH]c(C)cc4c3F)ncnc2cc1OCCCN1CCCC1` yielded an inhibition (AURKC (human); compound 0.02 µM) of -4.3%, an inhibition (AURKC (human); compound 0.2 µM) of -4% and an inhibition (CAMK1 (human); compound 0.02 µM) of -3.1%. The inhibition (CAMK1 (human); compound 0.2 µM) was -3.1%, the inhibition (CAMK2D (human); compound 0.02 µM) was 3.9% and the inhibition (CAMK2D (human); compound 0.2 µM) was 3.9%. The inhibition (CDC7 (human); compound 0.02 µM) was -3.4%, the inhibition (CDC7 (human); compound 0.2 µM) was -0.7% and the inhibition (CDK9 (human); compound 0.02 µM) was -3.2%. It also gave an inhibition (CDK9 (human); compound 0.2 µM) of -3.3%, an inhibition (DYRK1B (human); compound 0.02 µM) of 6.7% and an inhibition (DYRK1B (human); compound 0.2 µM) of -1.1%. The inhibition (EEF2K (human); compound 0.02 µM) was -5.2%, the inhibition (EEF2K (human); compound 0.2 µM) was 3.1% and the inhibition (EPHA5 (human); compound 0.02 µM) was -0.9%. The inhibition (EPHA5 (human); compound 0.2 µM) was 7.6%, the inhibition (FGFR2 (human); compound 0.02 µM) was 71.8% and the inhibition (FGFR2 (human); compound 0.2 µM) was 98.3%. The inhibition (FGFR4 (human); compound 0.02 µM) was 3.2%, the inhibition (FGFR4 (human); compound 0.2 µM) was 22.3% and the inhibition (GSG2 (human); compound 0.02 µM) was 0.4%. It also gave an inhibition (GSG2 (human); compound 0.2 µM) of -0.4%, an inhibition (IRAK1 (human); compound 0.02 µM) of -19.1% and an inhibition (IRAK1 (human); compound 0.2 µM) of -7.5%. For the same compound, the inhibition (JAK3 JH1 JH2 (human); compound 0.02 µM) was 5.1%, the inhibition (JAK3 JH1 JH2 (human); compound 0.2 µM) was 4% and the inhibition (KDR (human); compound 0.02 µM) was 96.3%. For the same compound, the inhibition (KDR (human); compound 0.2 µM) was 101%, the inhibition (MAPK11 (human); compound 0.02 µM) was -2.6% and the inhibition (MAPK11 (human); compound 0.2 µM) was -3.5%. The inhibition (MARK3 (human); compound 0.02 µM) was -1.8%, the inhibition (MARK3 (human); compound 0.2 µM) was -3.4% and the inhibition (NEK1 (human); compound 0.02 µM) was -5%. For the same compound, the inhibition (NEK1 (human); compound 0.2 µM) was -4.5%, the inhibition (PAK6 (human); compound 0.02 µM) was -2.2% and the inhibition (PAK6 (human); compound 0.2 µM) was -4.9%. It also gave an inhibition (PGK1 (human); compound 0.02 µM) of -1.4%, an inhibition (PGK1 (human); compound 0.2 µM) of -6.5% and an inhibition (PHKG2 (human); compound 0.02 µM) of -2.9%. The inhibition (PHKG2 (human); compound 0.2 µM) was -3.3%, the inhibition (PIM2 (human); compound 0.02 µM) was 6.1% and the inhibition (PIM2 (human); compound 0.2 µM) was 8.8%. The inhibition (PIM3 (human); compound 0.02 µM) was -1.8%, the inhibition (PIM3 (human); compound 0.2 µM) was -6.2% and the inhibition (PRKAA1 (human)) was 7.1%. The inhibition (PRKACG (human); compound 0.02 µM) was -4.7%, the inhibition (PRKACG (human); compound 0.2 µM) was -1.4% and the inhibition (PRKCE (human); compound 0.02 µM) was 7.2%. The inhibition (PRKCE (human); compound 0.2 µM) was -3%, the inhibition (PRKCQ (human); compound 0.02 µM) was 8.9% and the inhibition (PRKCQ (human); compound 0.2 µM) was 3.7%. It also gave an inhibition (PRKD1 (human); compound 0.02 µM) of -1.3%, an inhibition (PRKD1 (human); compound 0.2 µM) of -2.2% and an inhibition (RPS6KA6 KD1 KD2 (human); compound 0.02 µM) of 15%. For the same compound, the inhibition (RPS6KA6 KD1 KD2 (human); compound 0.2 µM) was -2.3%, the inhibition (RPS6KB1 (human); compound 0.02 µM) was 8.1% and the inhibition (RPS6KB1 (human); compound 0.2 µM) was 8.6%. The inhibition (STK38 (human); compound 0.02 µM) was 9.6%, the inhibition (STK38 (human); compound 0.2 µM) was -1.9% and the inhibition (TNIK (human); compound 0.02 µM) was -0.5%. The inhibition (TNIK (human); compound 0.2 µM) was 24.9%, the inhibition (TSSK3 (human); compound 0.02 µM) was 0.6% and the inhibition (TSSK3 (human); compound 0.2 µM) was 12.5%. It also gave an inhibition (TYK2 JH1 JH2 (human); compound 0.02 µM) of 4.8%, an inhibition (TYK2 JH1 JH2 (human); compound 0.2 µM) of 2.2% and an inhibition (TYRO3 (human); compound 0.02 µM) of 7.9%. The inhibition (TYRO3 (human); compound 0.2 µM) was 40.5%.
